Key:
[1] = biological target: Potassium voltage-gated channel subfamily KQT member 2 (Mus musculus, UniProt Q9Z351); experiment: Effect on outward potassium currents in whole-cell patch clamp assay of HEK 293 cells expressing cloned mouse KCNQ2 channel at -40 mV; type: functional, cell-based, HEK293
[2] = biological target: Potassium voltage-gated channel subfamily KQT member 2 (Mus musculus) (UniProt Q9Z351); experiment: Relative efficacy as ratio of maximal current amplitudes for compound and reference; type: functional
Sequence of Potassium voltage-gated channel subfamily KQT member 2 (Mus musculus) (Q9Z351 whole entry): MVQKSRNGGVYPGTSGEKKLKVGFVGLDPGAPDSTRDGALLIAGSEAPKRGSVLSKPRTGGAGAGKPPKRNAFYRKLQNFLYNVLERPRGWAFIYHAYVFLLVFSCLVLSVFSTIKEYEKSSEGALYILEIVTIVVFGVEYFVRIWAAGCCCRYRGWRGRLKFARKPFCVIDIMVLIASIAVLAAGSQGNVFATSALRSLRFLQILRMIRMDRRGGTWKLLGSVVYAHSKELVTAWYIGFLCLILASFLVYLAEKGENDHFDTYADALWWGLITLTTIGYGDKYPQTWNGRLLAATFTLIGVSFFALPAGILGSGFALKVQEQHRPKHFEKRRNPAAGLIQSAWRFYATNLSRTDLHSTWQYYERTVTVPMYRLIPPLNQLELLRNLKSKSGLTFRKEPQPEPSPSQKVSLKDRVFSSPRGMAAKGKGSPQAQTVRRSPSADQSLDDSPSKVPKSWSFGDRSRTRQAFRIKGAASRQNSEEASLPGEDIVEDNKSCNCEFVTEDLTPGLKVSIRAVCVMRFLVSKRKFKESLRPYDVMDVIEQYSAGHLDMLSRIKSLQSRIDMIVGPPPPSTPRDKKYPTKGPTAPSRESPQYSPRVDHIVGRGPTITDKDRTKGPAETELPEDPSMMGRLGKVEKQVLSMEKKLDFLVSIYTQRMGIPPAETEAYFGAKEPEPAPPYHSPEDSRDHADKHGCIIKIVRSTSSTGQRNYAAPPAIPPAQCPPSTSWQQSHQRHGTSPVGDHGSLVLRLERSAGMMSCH

Sequence of Potassium voltage-gated channel subfamily KQT member 2 (Q9Z351 whole entry): as above

Molecule `C[C@H](NC(=O)/C=C/c1ccccc1Cl)c1ccc2c(c1)OCO2` has an EC50 [1] of 20 nM and an E/Eref [2] of 1.1.

With `C[C@H](NC(=O)/C=C/c1ccccc1)c1cccc(N2CCOCC2)c1` the EC50 [1] was 3200 nM and the E/Eref [2] was 1.4.

In the case of `C[C@H](NC(=O)/C=C/c1ccccc1F)c1cccc(-n2cncn2)c1`, the EC50 [1] is reported as 330 nM and the E/Eref [2] is reported as 1.2.

`C[C@H](NC(=O)/C=C/c1ccccc1F)c1ccc2c(c1)N(CC1CC1)CCO2` showed an E/Eref [2] of 1.83.

`C[C@H](NC(=O)/C=C/c1ccccc1F)c1cccc(-c2cnccn2)c1` gave an EC50 [1] of 370 nM and an E/Eref [2] of 1.57.

`CCOC(=O)Nc1ccc(NCc2ccc(F)cc2)cc1N` showed an E/Eref [2] of 1.6.

`C[C@H](NC(=O)/C=C/c1ccccc1F)c1cccc(-c2ccccn2)c1` was tested, and the EC50 [1] was 1200 nM and the E/Eref [2] was 1.8.

Molecule `C[C@H](NC(=O)/C=C/c1ccccc1F)c1cccc(-n2cccn2)c1` has an EC50 [1] of 120 nM and an E/Eref [2] of 1.6.

In the case of `C[C@H](NC(=O)/C=C/c1ccccc1F)c1cccc(-c2ccc(F)nc2)c1`, the EC50 [1] is reported as 10 nM and the E/Eref [2] is reported as 0.85.

With `C[C@H](NC(=O)/C=C/c1ccccc1)c1cccc(-n2cccn2)c1` the EC50 [1] was 1200 nM and the E/Eref [2] was 1.9.
